Among the data in BindingDB's records for doi:10.1021/jm2013997 (Oxagen, 2012) are IC50 and EC50 values, retold here.

The nature of experiment [1]: Antagonist activity at CRTH2 in human eosinophils assessed as inhibition of PGD2-induced shape change by gated autofluorescence forward scatter analysis.
A short description of experiment [2]: Partial antagonist activity at CRTH2 in human eosinophils assessed as inhibition of PGD2-induced shape change by FACS analysis. On the technique in general: In flow cytometry, cells or beads pass a laser one at a time.

What is called IC50 is the concentration that inhibits the measured activity by half. For the molecule `C[C@H](Oc1ccc(F)cc1-c1ccc(C(=O)N2CCCC2(C)C)c(Cl)c1)C(=O)O`, the IC50 in experiment [1] was 44 nM.

As for `CN(C)c1nc(Cc2ccc(NC(=O)c3ccc(C(F)(F)F)cc3)cc2)nc(N(C)C)c1CC(=O)O` [2-(4,6-bis(dimethylamino)-2-(4-(4-(trifluoromethyl)benzamido)benzyl)pyrimidin-5-yl)acetic acid], the IC50 in experiment [1] turned out to be 626 nM. The term EC50 denotes the concentration giving half of the maximal effect. Take `COc1ccc2c(c1)c(CC(=O)O)c(C)n2C(=O)c1ccc(Cl)cc1` [indometacin]: the EC50 in experiment [2] was 389 nM.
